Assay results reported in US9139532B2, “Pyrazolyl guanidine F1F0-atpase inhibitors and therapeutic uses thereof” (Lycera Corporation, priority 2010, dated 2015).
Like-named read-outs stand apart in the source and are kept apart here.

What was measured:
Ramos cells = assay: Cytotoxicity in Ramos cells; type: cell-based; details: cytotoxicity in Ramos cells, read-out: Ramos Cell EC50
F1F0-ATPase = biological target: T1, F1F0-ATPase (Bos taurus, UniProt P13621); assay: Inhibition of F1F0-ATPase activity in synthesizing ATP; type: biochemical; details: inhibition of ATP synthesis by F1F0-ATPase; read-out: ATP Syn IC50
T1 construct: from tissue

SMILES	IC50 (F1F0-ATPase) [µM]	EC50 (Ramos cells) [µM]	EC50 (Ramos cells; Homo sapiens) [µM]
COc1ccc(-c2cc(NC(=NC(=O)c3ccc(Cl)c(F)c3)NC3CCOCC3)n[nH]2)cc1 [Compound A-462]	> 10	–	> 10
O=C(/N=C(\Nc1cc(-c2ccc(Cl)cc2)n[nH]1)NC1CCOCC1)c1ccc(Cl)c(F)c1 [Compound A-464]	> 10	> 10	–
O=C(N=C(Nc1cc(-c2ccc(F)cc2)n[nH]1)NC1CCOCC1)c1ccc(C(F)(F)F)cc1 [Compound A-465]	> 10	–	> 10
O=C(N=C(Nc1cc(-c2ccccc2)[nH]n1)NC1CCOCC1)c1ccc(C(F)(F)F)cc1 [Compound A-466]	> 10	–	> 10
COc1ccc(-c2cc(N/C(=N\C(=O)c3ccc(Cl)c(F)c3)NCc3ccc(F)cc3Cl)[nH]n2)cc1 [Compound A-471]	< 10	> 10	–
O=C(/N=C(/NCc1ccc(F)cc1Cl)Nc1cc(-c2cccc(Cl)c2)n[nH]1)c1ccc(Cl)c(F)c1 [Compound A-472]	< 10	> 10	–
O=C(N=C(NCc1ccc(F)cc1Cl)Nc1cc(-c2ccc(Cl)cc2)n[nH]1)c1ccc(Cl)c(F)c1 [Compound A-473]	< 10	–	> 10
Cc1ccc(-c2cc(NC(=NC(=O)c3ccc(Cl)c(F)c3)NCc3ccc(F)cc3Cl)[nH]n2)cc1 [Compound A-474]	< 10	–	> 10
O=C(N=C(Nc1cc(F)cc(Cl)c1)Nc1cc(-c2cccc(Cl)c2)[nH]n1)c1ccc(Cl)c(F)c1 [Compound A-475]	< 10	–	> 10
COc1ccc(-c2cc(N/C(=N\C(=O)c3ccc(F)c(F)c3)NCc3ccc(F)cc3Cl)[nH]n2)cc1 [Compound A-476]	< 10	> 10	–
O=C(/N=C(/NCc1ccc(F)cc1Cl)Nc1cc(-c2cccc(Cl)c2)n[nH]1)c1ccc(F)c(F)c1 [Compound A-477]	< 10	> 10	–
O=C(/N=C(/NCc1ccc(F)cc1Cl)Nc1cc(-c2ccc(Cl)cc2)n[nH]1)c1ccc(F)c(F)c1 [Compound A-478]	< 10	< 10	–
Cc1ccc(-c2cc(N/C(=N\C(=O)c3ccc(F)c(F)c3)NCc3ccc(F)cc3Cl)[nH]n2)cc1 [Compound A-479]	< 10	< 10	–
COc1ccc(-c2cc(N/C(=N\C(=O)c3ccc(F)c(F)c3)Nc3cc(F)cc(Cl)c3)[nH]n2)cc1 [Compound A-480]	< 10	> 10	–
COc1ccc(-c2cc(N/C(=N\C(=O)c3ccc(C(F)(F)F)cc3)Nc3cc(F)cc(Cl)c3)[nH]n2)cc1 [Compound A-481]	< 10	> 10	–
O=C(/N=C(/Nc1cc(F)cc(Cl)c1)Nc1cc(-c2ccccc2)n[nH]1)c1ccc(Cl)c(F)c1 [Compound A-482]	< 10	< 10	–
O=C(/N=C(/NCc1ccc(F)cc1Cl)Nc1cc(-c2ccccc2)n[nH]1)c1ccc(F)c(F)c1 [Compound A-483]	< 10	> 10	–
COCC(C)NC(=NC(=O)c1ccnc(N2CCCC2)c1)Nc1cc(-c2ccc(F)cc2)[nH]n1 (stereo not shown) [Compound A-484]	< 10	–	< 10

SMILES	IC50 (F1F0-ATPase) [µM]	EC50 (Ramos cells) [µM]	EC50 (Ramos cells; Homo sapiens) [µM]
CC(=O)Nc1cc(C(=O)N=C(Nc2cc(-c3ccc(F)cc3)[nH]n2)NC(C)(C)C)ccn1 [Compound A-485]	> 10	–	> 10
CC(C)(C)NC(=NC(=O)c1ccnc(N)c1)Nc1cc(-c2ccc(F)cc2)[nH]n1 [Compound A-486]	< 10	–	< 10
CC(C)(C)N/C(=N/C(=O)c1ccnc(N2CCCC2)c1)Nc1cc(-c2ccc(F)cc2)n[nH]1 [Compound A-487]	< 10	< 10	–
COC[C@H](C)N/C(=N/C(=O)c1ccc(F)cc1F)Nc1cc(-c2ccc(F)cc2)n[nH]1 [Compound A-488]	< 10	< 10	–
CC(C)(C)N/C(=N/C(=O)c1ccc(F)cc1F)Nc1cc(-c2ccc(F)cc2)n[nH]1 [Compound A-489]	< 10	< 10	–
CC(CC#N)NC(=NC(=O)c1ccc(F)cc1)Nc1cc(-c2ccc(F)cc2)n[nH]1 (stereo not shown) [Compound A-490]	< 10	–	< 10
COC[C@H](C)NC(=NC(=O)c1cccc(S(C)(=O)=O)c1)Nc1cc(-c2ccc(F)cc2)n[nH]1 [Compound A-491]	< 10	–	> 10
COC[C@H](C)N/C(=N/C(=O)c1ccc(O)cc1)Nc1cc(-c2ccc(F)cc2)n[nH]1 [Compound A-492]	< 10	< 10	–
COC[C@H](C)N/C(=N/C(=O)c1ccc(OC)nc1)Nc1cc(-c2ccc(F)cc2)n[nH]1 [Compound A-493]	< 10	< 10	–
COc1ccc(C(=O)/N=C(\Nc2cc(-c3ccc(F)cc3)n[nH]2)NC(C)(C)C)cn1 [Compound A-494]	< 10	< 10	–
COC[C@H](C)N/C(=N/C(=O)c1ccnc(OC)c1)Nc1cc(-c2ccc(F)cc2)n[nH]1 [Compound A-495]	< 10	< 10	–
COc1cc(C(=O)/N=C(\Nc2cc(-c3ccc(F)cc3)n[nH]2)NC(C)(C)C)ccn1 [Compound A-496]	< 10	< 10	–
COCC(C)NC(=NC(=O)c1ccc(S(C)(=O)=O)cc1)Nc1cc(-c2ccc(F)cc2)n[nH]1 (stereo not shown) [Compound A-497]	< 10	–	< 10
CC(C)(C)N/C(=N/C(=O)c1ccc(S(C)(=O)=O)cc1)Nc1cc(-c2ccc(F)cc2)n[nH]1 [Compound A-498]	< 10	< 10	–
CC(C)(C)N/C(=N/C(=O)c1cccc(S(C)(=O)=O)c1)Nc1cc(-c2ccc(F)cc2)n[nH]1 [Compound A-499]	< 10	< 10	–
COC[C@@H](C)NC(=NC(=O)c1ccc(F)cc1)Nc1cc(-c2ccc(F)cc2)n[nH]1 [Compound A-500]	< 10	–	< 10
O=C(/N=C(\Nc1cc(-c2ccc(F)cc2)n[nH]1)NC1CCC(F)(F)CC1)c1ccc(F)cc1 [Compound A-501]	< 10	< 10	–
N#Cc1cccc(C(=O)/N=C(\Nc2cc(-c3ccc(F)cc3)n[nH]2)NC2CCC(F)(F)CC2)c1 [Compound A-502]	< 10	< 10	–

The next lines start with results.

IC50 (F1F0-ATPase) [µM]	SMILES	EC50 (Ramos cells) [µM]	EC50 (Ramos cells; Homo sapiens) [µM]
< 10	O=C(/N=C(/NCc1ccc(F)cc1Cl)Nc1cc(-c2cccc(Cl)c2)n[nH]1)c1ccc(C(F)(F)F)cc1 [Compound A-444]	> 10	–
< 10	O=C(/N=C(/NCc1ccc(F)cc1Cl)Nc1cc(-c2ccc(Cl)cc2)n[nH]1)c1ccc(C(F)(F)F)cc1 [Compound A-445]	< 10	–
< 10	O=C(N=C(Nc1cc(F)cc(Cl)c1)Nc1cc(-c2cccc(Cl)c2)[nH]n1)c1ccc(C(F)(F)F)cc1 [Compound A-446]	–	> 10
< 10	O=C(/N=C(/Nc1cc(F)cc(Cl)c1)Nc1cc(-c2ccc(Cl)cc2)n[nH]1)c1ccc(C(F)(F)F)cc1 [Compound A-447]	> 10	–
< 10	CC(C)(C)NC(=NC(=O)c1cccc(C(F)(F)F)c1)Nc1cc(-c2ccc(F)cc2)n[nH]1 [Compound A-448]	–	< 10
< 10	O=C(/N=C(/NCc1ccc(F)cc1Cl)Nc1cc(-c2ccc(F)cc2)n[nH]1)c1cccc(C(F)(F)F)c1 [Compound A-449]	< 10	–
< 10	O=C(N=C(Nc1cc(F)cc(Cl)c1)Nc1cc(-c2ccc(F)cc2)n[nH]1)c1cccc(C(F)(F)F)c1 [Compound A-450]	–	< 10
< 10	CC(C)(C)N/C(=N/C(=O)c1cccc(Cl)c1)Nc1cc(-c2ccc(F)cc2)n[nH]1 [Compound A-451]	< 10	–
< 10	O=C(N=C(NCc1ccc(F)cc1Cl)Nc1cc(-c2ccc(F)cc2)n[nH]1)c1cccc(Cl)c1 [Compound A-452]	–	< 10
< 10	CC(C)(C)N/C(=N/C(=O)c1ccc(Cl)cc1)Nc1cc(-c2ccc(F)cc2)n[nH]1 [Compound A-453]	< 10	–
< 10	O=C(/N=C(/NCc1ccc(F)cc1Cl)Nc1cc(-c2ccc(F)cc2)n[nH]1)c1ccc(Cl)cc1 [Compound A-454]	< 10	–
< 10	O=C(/N=C(/Nc1cc(F)cc(Cl)c1)Nc1cc(-c2ccc(F)cc2)n[nH]1)c1ccc(Cl)cc1 [Compound A-455]	< 10	–
< 10	CC(C)(C)N/C(=N/C(=O)c1cccc(F)c1)Nc1cc(-c2ccc(F)cc2)n[nH]1 [Compound A-456]	< 10	–
< 10	O=C(/N=C(/NCc1ccc(F)cc1Cl)Nc1cc(-c2ccc(F)cc2)n[nH]1)c1cccc(F)c1 [Compound A-457]	< 10	–
< 10	O=C(/N=C(/Nc1cc(F)cc(Cl)c1)Nc1cc(-c2ccc(F)cc2)n[nH]1)c1cccc(F)c1 [Compound A-458]	< 10	–
< 10	CC(C)(C)N/C(=N/C(=O)c1ccc(F)cc1)Nc1cc(-c2ccc(F)cc2)n[nH]1 [Compound A-459]	< 10	–
< 10	O=C(N=C(NCc1ccc(F)cc1Cl)Nc1cc(-c2ccc(F)cc2)n[nH]1)c1ccc(F)cc1 [Compound A-460]	–	< 10
< 10	O=C(N=C(Nc1cc(F)cc(Cl)c1)Nc1cc(-c2ccc(F)cc2)n[nH]1)c1ccc(F)cc1 [Compound A-461]	–	< 10
< 10	O=C(/N=C(\Nc1cc(-c2cccc(Cl)c2)n[nH]1)NC1CCOCC1)c1ccc(Cl)c(F)c1 [Compound A-463]	> 10	–
< 10	COc1ccc(-c2cc(N/C(=N\C(=O)c3ccc(Cl)c(F)c3)NC(C)(C)C)[nH]n2)cc1 [Compound A-467]	< 10	–
< 10	CC(C)(C)NC(=NC(=O)c1ccc(Cl)c(F)c1)Nc1cc(-c2cccc(Cl)c2)[nH]n1 [Compound A-468]	–	< 10
< 10	CC(C)(C)NC(=NC(=O)c1ccc(Cl)c(F)c1)Nc1cc(-c2ccc(Cl)cc2)n[nH]1 [Compound A-469]	–	< 10
< 10	Cc1ccc(-c2cc(NC(=NC(=O)c3ccc(Cl)c(F)c3)NC(C)(C)C)[nH]n2)cc1 [Compound A-470]	–	> 10
